# In the OPERA property sets (Mansouri et al. 2018):
# Settings: not given
SMILES,boiling point,melting point,ready biodegradability,log10 vapour pressure (mmHg),log10 Koc (L/kg),log10 Henry constant (atm·m³/mol)
FC(F)(F)c1cccc(Cl)c1,138 °C,-56 °C,not readily biodegradable,,,
CCOCCl,83 °C,,,,,
O=P(OCCCl)(OCCCl)OCCCl,330 °C,-35 °C,not readily biodegradable,-1.21,,
CC1COC(=O)O1 (stereo unspecified),242 °C,-48.8 °C,readily biodegradable,-1.35,,
CCCCCCC(C)CC (stereo unspecified),168 °C,-84.8 °C,,,,
CCCCCCCCCCC(=O)O,280 °C,28.6 °C,readily biodegradable,-2.42,,
CCCCCOCC,118 °C,,,,,
CCC(C#N)CC,146 °C,,,,,
c1ccc(SSc2ccccc2)cc1,310 °C,62 °C,,-3.66,,
C1CCC(C2CCCCC2)CC1,238 °C,4 °C,,-0.967,,
CC1=C(O)C(=O)CC1,,106 °C,,,,
Oc1ccccc1N=Nc1ccccc1O,,173 °C,,,,
C=C1CC[C@H](O)C/C1=C/C=C1\CCC[C@]2(C)[C@@H]([C@H](C)CCCC(C)C)CC[C@@H]12,,84.5 °C,,,,
CCCCCCCCC(Br)C(=O)O (stereo unspecified),,4 °C,,,,
C=C1CCCC1,75.5 °C,,,,,
CCCCCCCCCCCCCCCCOC(=O)CCCCCCCCCCCCC,,,readily biodegradable,,,
CCCSP(=O)(OCC)Oc1cnn(-c2ccc(Cl)cc2)c1 (stereo unspecified),,,,-7.92,,
O=S(=O)(Cc1ccccc1)Cc1ccccc1,,152 °C,,,,
C/C=C(/C(=C/C)c1ccc(O)cc1)c1ccc(O)cc1,,228 °C,,,,
CC(Cl)(Cl)C(=O)O,188 °C,-5 °C,,-0.821,0.4,
Clc1[nH]nc2ccccc12,,149 °C,,,,
CCCC(CC)C(C)C (stereo unspecified),138 °C,,,,,

SMILES,boiling point,melting point,ready biodegradability,log10 vapour pressure (mmHg),log10 Koc (L/kg),log10 Henry constant (atm·m³/mol)
CCCC=CCC=O,151 °C,,,,,
CC(C)(C)Oc1ccccc1,186 °C,-24 °C,,,,
CCOCOC(=O)c1ccccc1Nc1c(Cl)ccc(C)c1Cl,,73.5 °C,,,,
CCCC(O)CC/C=C/C=C/C#CC#C/C=C/CO (stereo unspecified),,87 °C,,,,
CC[C@H]1C[C@@H]2C[C@H]3c4[nH]c5cc(OC)ccc5c4CC[N@@](C2)[C@@H]13,,214 °C,,,,
COc1ccc(N)cc1N,221 °C,67.5 °C,,,,
CC(C)c1ccc(CO)cc1,249 °C,28 °C,readily biodegradable,,,
OCCCCCCCCl,,11 °C,,,,
C=CCOC(C)=O,104 °C,,,1.43,,
O=C(c1ccccc1)c1ccc(Br)cc1,350 °C,82.5 °C,,,,
CC(=O)NS(=O)(=O)c1ccc(N)cc1,,183 °C,,,,
O=[N+]([O-])c1ccc2c(c1)Cc1ccccc1-2,,157 °C,,,,
OCCN(CCO)CCO,335 °C,20.5 °C,not readily biodegradable,-5.44,,
COc1c(OC)c2occc2c2oc(=O)ccc12,,119 °C,,,,
CC=C(C)Br,99.8 °C,,,,,
C[C@H]1[C@H](C)CC[C@]2(C(=O)O)CC[C@]3(C)C(=CC[C@@H]4[C@@]5(C)CC[C@H](O)C(C)(C)[C@@H]5CC[C@]43C)[C@H]12,,284 °C,,,,
CN(C)C(=S)SSC(=S)N(C)C,,156 °C,readily biodegradable,-4.76,2.83,
Cc1ccc2c(c1)CCC(C)C2 (stereo unspecified),240 °C,20 °C,,,,
CC(Cl)C(C)Cl (stereo unspecified),118 °C,-80 °C,,1.39,,
CCCCCCCCCCCCCCCCCCOC(=O)CCSCCC(=O)OCCCCCCCCCCCCCCCCCC,,66 °C,readily biodegradable,,,
c1cnccn1,115 °C,55 °C,readily biodegradable,1.03,,
CCC(C)OC(=O)CCC(=O)OC(C)CC (stereo unspecified),256 °C,,,,,

SMILES,boiling point,melting point,ready biodegradability,log10 vapour pressure (mmHg),log10 Koc (L/kg),log10 Henry constant (atm·m³/mol)
CCCCCCCOC(C)=O,193 °C,-50.2 °C,,,,
CN(C)c1ccc(-c2ccc(N(C)C)cc2)cc1,,194 °C,,,,
CCCOC(=O)CC,122 °C,-75.9 °C,,1.14,,
CS(=O)(=O)c1cc(C(F)(F)F)ccc1C(=O)c1cnoc1C1CC1,,140 °C,,-8.12,,-9.73
CC(Cl)=CCCl,131 °C,,,,,
c1ccc(COc2ccccc2)cc1,286 °C,40 °C,,-2.2,,
CCCCCC(=O)CC(C)=O,,-18 °C,,,,
CCCCCCCCCCCO,243 °C,19 °C,readily biodegradable,-2.53,,
COc1ccccc1N,224 °C,6.2 °C,readily biodegradable,-1.1,,
CCCCCCC(C)CCCCCC,,-37.2 °C,,,,
ClC[Si](Cl)(Cl)Cl,118 °C,,,,,
FC(F)(Cl)C(F)(Cl)C(F)(F)Cl,73.7 °C,-72 °C,,,,
O=C=Nc1cccc(N=C=O)c1,,50 °C,,,,
CC(=O)c1cccs1,214 °C,10.5 °C,,,,
CCCCCCCC/C=C\CCCCCCCCCCCC(=O)O,,33.5 °C,,,,
CCOC(=O)NC(C)(C)Cc1ccc(Cl)cc1,,52.8 °C,,,,
CCCCCCCCS,199 °C,-49.2 °C,,-0.372,,
C#CC1(OC(N)=O)CCCCC1,,96 °C,readily biodegradable,,,
O=C(CF)c1ccccc1,,29 °C,,,,
N#CCCOc1cccc2ccccc12,,64 °C,,,,
c1ccc(OP(Oc2ccccc2)Oc2ccccc2)cc1,360 °C,25 °C,,,,
FC1(F)C(F)(F)C(F)(F)C2(F)C(F)(F)C(F)(F)C(F)(F)C(F)(F)C2(F)C1(F)F (stereo unspecified),,-10 °C,,,,

SMILES,boiling point,melting point,ready biodegradability,log10 vapour pressure (mmHg),log10 Koc (L/kg),log10 Henry constant (atm·m³/mol)
CC(C)CN=C=O,106 °C,,,,,
CCOC(=O)c1ccc(NC(=O)CCl)cc1,,,readily biodegradable,,,
CC(O)CN(C)C (stereo unspecified),124 °C,124 °C,,,,
CC(C)Nc1nc(Cl)nc(NC(C)C)n1,,213 °C,not readily biodegradable,-6.88,2.4,
CNOC,,,,2.58,,
Cc1cc(=O)[nH]o1,,86.5 °C,,-2.86,,
CC(=O)Oc1cccnc1,,,readily biodegradable,,,
BrCCCOc1ccccc1,,10.7 °C,,,,
C=C(C)C=CC,,75.5 °C,,,,
C=C(C)[C@@H]1CC[C@]2(C)CC[C@]3(C)[C@H](CC[C@@H]4[C@@]5(C)CC[C@H](O)C(C)(C)[C@@H]5CC[C@]43C)[C@@H]12,,216 °C,,,,
C=CCSC,92 °C,,,,,
CCCCOCCOC(=O)COc1ccc(Cl)cc1Cl,,,,-5.35,,
Brc1cc2ccccc2c2ccccc12,,64.5 °C,,,,
CCC(C)(C)C(C)C(C)C (stereo unspecified),162 °C,,,,,
COC(=O)C(C)(C)O,137 °C,,,,,
CN1C2CCCC1CC(=O)C2,246 °C,54 °C,,,,
BrC/C=C/CBr,203 °C,53.4 °C,,,,
O=[N+]([O-])c1ccc(Oc2ccc(C(F)(F)F)cc2Cl)cc1,,68 °C,,,,
CNc1ccccc1C(=O)OC,255 °C,19 °C,,,,
Nc1cccc2cccc(S(=O)(=O)O)c12,,,not readily biodegradable,,,
CCCCCCCCCCCCCCCC(=O)Cl,,12 °C,,,,
CCCCCCCCCCCCCCCCCN,336 °C,49 °C,,,,

SMILES,boiling point,melting point,ready biodegradability,log10 vapour pressure (mmHg),log10 Koc (L/kg),log10 Henry constant (atm·m³/mol)
CC(C)c1ccc2ccccc2c1,268 °C,14.5 °C,,-2.29,,
CCCCCCCCCCCC(=O)OCCOC(=O)CCCCCCCCCCC,,56.6 °C,,,,
C=CC(C)C(C)O (stereo unspecified),126 °C,,,,,
OCCN(CCO)c1nc(N2CCCCC2)c2nc(N(CCO)CCO)nc(N3CCCCC3)c2n1,,163 °C,,,,
c1ccc(P(c2ccccc2)c2ccccc2)cc1,,80 °C,,,,
CCCCCCCC(=O)OCC(COC(=O)CCCCCCC)OC(=O)CCCCCCC,,10 °C,,,,
NCCCCCCCCN,225 °C,52 °C,readily biodegradable,,,
O=S(=O)(CCl)c1ccccc1,,54 °C,,,,
C=COCCCCCC,143 °C,,,,,
COC(=O)CC(=O)C(C)(C)C,,,not readily biodegradable,,,
CC1CC(=O)CC(C)(C)C1 (stereo unspecified),189 °C,,not readily biodegradable,,,
CCOC(=O)C(C)(C)C(C)=O,182 °C,,,,,
ClC(C(Cl)(Cl)Cl)C(Cl)(Cl)Cl,249 °C,11 °C,,,,
CCCCCC#CC(=O)O,,4 °C,,,,
O=C(O)c1ccc(Cl)c([N+](=O)[O-])c1,,183 °C,,,,
CC(=O)C=NO,,69 °C,,,,
CCOC(=O)CC(C)C,135 °C,-99.3 °C,,0.919,,
CC=CC(=O)Cl,124 °C,,,,,
CCn1ccc(NS(=O)(=O)c2ccc(N)cc2)nc1=O,,166 °C,,,,

# Same assay, conditions: fish
SMILES,log10 BCF,log10 biotransformation half-life (days)
FC(F)(F)c1cccc(Cl)c1,2.35,0.64
O=P(OCCCl)(OCCCl)OCCCl,0.11,-0.66
C1CCC(C2CCCCC2)CC1,,0.38
OCCN(CCO)CCO,0.59,
CN(C)C(=S)SSC(=S)N(C)C,0.53,-1.18
[Na][O]c1c(Cl)c(Cl)c(Cl)c(Cl)c1Cl,2.78,
CC(C)c1ccc2ccccc2c1,,1
